Test results reported in patent US8354430B2, “Monohydrochloride salt of 1-[3-[3-(4-chlorophenyl) propoxy]propyl]-piperidine” (priority 2005, dated 2013).

Tests used:
[1] = Stability to oxidation conditions (melting points under nitrogen and oxygen atmosphere); assay type: physicochemical
Protocol: Melting points of the above salts were also determined under nitrogen and oxygen atmosphere, in order to verify their stability to oxidation conditions.

[2] = test system: GAERS rats; test: Absence epilepsy in GAERS rat; assay type: in vivo
Description: A strain of Wistar rats with spontaneously generalized non convulsive seizures (absence seizures) has been developed in Strasbourg (Genetic Absence Epilepsy Rats of Strasbourg or GAERS). Seizures are characterized by bilateral and synchronous spike-and-wave discharges (7-9 Hz) on EEG, concomitant with behavioral arrests. These discharges generally last about 20 sec and occur spontaneously every minute when the animals are in a state of quiet wakefulness. Pharmacological reactivity of this model is similar to human absence-epilepsy (e.g., valproate and ethosuccimide are protective). After a recovery period, implanted rats (cortical and hippocampal EEG electrodes) were recorded over a 20 min reference period. […] Rats received the alternative treatment one week later. Cumulated duration of absence-seizures was measured by 20 min periods during the two sessions. Fast Fourier transform analysis of EEG recording allowed detection of any rhythm change during both ictal and inter-ictal periods (background activity).

[3] = test system: mice; test: Electroshock in mice (maximal electroshock seizure model); assay type: in vivo, mouse; details: 100 mg/kg, p.o.; test 60 min after dosing
[4] = test system: mice; test: Sleep-wake cycle study in mice (EEG/EMG); assay type: in vivo, mouse
Protocol: Animals were chronically implanted with cortical and muscle electrodes to record EEG and EMG respectively, to allow monitoring their sleep-wake cycle. After recovery from surgery, animals were housed individually in a sound-proof recorded room maintaining at appropriate ambient temperature on a 12 h light/dark cycle. Polygraphic recordings were performed during 4 days to collect reference qualitative and quantitative data of sleep-wake control in each individual. Then, pharmacological evaluation was performed over 24 h sessions and analyzed by successive 30 sec epochs. Wakefulness and sleep states were identified as previously described for cats [Petitjean et al., Brain Res., 1975, 88: 439-53] and mice [Valatx and Bugat, Brain Res., 1974, 69: 315-30].
Polygraphic recordings were started 15 days after surgery (5 days recovery plus 10 days acclimation to the recording wires). Sleep-wake recording criteria included wakefulness (W), slow wave sleep (SWS) and paradoxical sleep (PS). Spectral analysis of EEG was performed by Fast-Fourier Transform in the 0.8-2.5 Hz, 8-15 Hz and 30-60 Hz frequency bands.

[5] = test system: mice; test: Natural forgetting, two-trial object recognition; assay type: in vivo, mouse
Protocol: Methods: Mice were submitted to the first trial (T1), placed in the box containing two identical objects and the time required by each animal to complete 8 sec of object exploration was determined. Exploration was considered to be directing the nose at a distance closer than 2 cm to the object and/or touching the object. Immediately after the first trial mice were treated with the vehicle or tacrine (0.25 mg/kg, i.p.). […] Mice were placed in the box for 5 min and exploration of each object together with motor activity was determined. The following parameters were measured: […]

[6] = 13-week repeat oral dose study in rats; details: rat, in vivo, read-out: NOAEL (no observed adverse effect level)
[7] = Genotoxicity in vitro or in vivo
[8] = test system: volunteers; test: Phase I study of subjective satiety, interaction with olanzapine; assay type: in vivo, human
Protocol: A single-center, open-label, placebo-controlled phase I study was performed to evaluate the subjective satiety in 6 volunteers. The volunteers enrolled in the study underwent five single day administration periods.

[9] = test system: volunteers; test: Single ascending dose EEG, psychometric and vigilance study in volunteers; assay type: in vivo, human
Protocol: A single-center, double-blind, randomized, placebo-controlled, single ascending doses, electroencephalographic study was performed in 36 volunteers. Subjects were consecutively enrolled in groups 1 to 6 (1, 5, 10, 20, 40 or 60 mg). All subjects of each dose group were randomly assigned to receive either 1-[3-[3-(4-chlorophenyl) propoxy]propyl]-piperidine monohydrochloride or placebo, in such a way that 5 subjects received the product and one subject received placebo.
From the EEG spectral analysis performed before treatment, the study subjects could be stratified as microvolted (66%) and normo or grandvolted (33%). The distribution between those subjects with 30-40% slow activity and 20-25% rapid activity (microvolted), and those with 10% slow activity (normovolted) or 60-80% of [alpha]-activity (grandvolted), explains that before drug administration significant differences were elicited for 20-30 Hz and 30-40 Hz activities.

[10] = biological target: T1, human H3R (Homo sapiens, UniProt Q9Y5N1); test: [35S]GTPγS specific binding to membranes of CHO cells expressing the human H3R; assay type: biochemical; design: expressed in transfected cells; host or cells: CHO cells
[11] = biological target: T1, human H3R; test: Histamine H3 receptor binding, recombinant human H3R expressed in rat glioma C6 cells; design: expressed in transfected cells; host or cells: various mammalian cells (the earlier reading names rat glioma C6)
[12] = two hours after single oral 40 mg and 60 mg

T1 sequence (Q9Y5N1 whole entry): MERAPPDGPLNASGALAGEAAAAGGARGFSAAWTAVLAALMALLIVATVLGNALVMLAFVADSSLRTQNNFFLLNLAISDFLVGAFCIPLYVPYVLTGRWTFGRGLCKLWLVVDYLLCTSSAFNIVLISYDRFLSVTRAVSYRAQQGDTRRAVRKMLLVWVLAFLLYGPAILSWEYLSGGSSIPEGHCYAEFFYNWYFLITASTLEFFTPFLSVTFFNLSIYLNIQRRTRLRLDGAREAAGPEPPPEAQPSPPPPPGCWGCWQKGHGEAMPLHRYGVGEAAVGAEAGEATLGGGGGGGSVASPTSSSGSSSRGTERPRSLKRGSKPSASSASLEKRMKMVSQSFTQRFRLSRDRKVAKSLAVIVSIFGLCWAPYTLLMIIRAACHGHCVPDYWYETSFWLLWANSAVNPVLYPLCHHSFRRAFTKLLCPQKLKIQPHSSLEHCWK

Cl.Clc1ccc(CCCOCCCN2CCCCC2)cc1 [1-[3-[3-(4-chlorophenyl)propoxy]propyl]-piperidine monohydrochloride]
Melting point, N2 atmosphere (stability to oxidation conditions) ([1]; N2 atmosphere): 117.68 °C
Melting point, O2 atmosphere (stability to oxidation conditions) ([1]; O2 atmosphere): 117.54 °C
stability to oxidation conditions ([1]; melting points under nitrogen vs oxygen atmosphere): better profile of stability to oxidation conditions than other salts
reduction of cumulated duration of spike-and-wave discharges vs. saline ([2]; 5 mg/kg, i.p.): 25%
reduction of cumulated duration of spike-and-wave discharges vs. saline ([2]; 20 mg/kg, i.p.): 77%
number and cumulated durations of spike and wave discharges ([2]; 20 mg/kg, i.p., 20, 40 and 60 min after administration): significantly decreased
EEG background activity (spectral analysis of inter-ictal periods) ([2]; epilepsy models): not associated with significant change in EEG background activity
protection in the maximal electroshock seizure model [3]: complete protection
increase in W duration ([4]; 10 mg/kg oral): 29%
increase in W duration ([4]; 20 mg/kg oral): 69%
behavioral change in treated mice ([4]; oral): No behavioral change
awakening (W) at the expense of SWS and PS ([4]; oral, 2.5, 5, 10 or 20 mg/kg): dose-dependent increase in awakening
natural forgetting, association with tacrine ([5]; 15 mg/kg i.p. together with tacrine 0.25 mg/kg i.p.): without change in the tacrine effect
natural forgetting ([5]; 15 mg/kg, i.p., 30 min before T1): significantly reduced
NOAEL at 13 weeks [6]: 30 mg/kg/day
genotoxicity [7]: not to be genotoxic in vitro or in vivo
subjective satiety versus placebo ([8]; 60 mg): significantly increased
subjective satiety, association with olanzapine ([8]; 60 mg + olanzapine 5 mg): able to counteract the effect of olanzapine leading to subjective satiety superimposable to placebo
flicker, fusion and flicker-fusion thresholds (CFF) vs placebo ([9]; single 60 mg): higher
ARCI 49 ([9]; single doses 1-60 mg): no trend or statistically significant drug effect
self-perception of sleep (LEEDS), alertness, contentedness and calmness (Bond-Lader VAS), choice reaction time (CRT) ([9]; single doses 1-60 mg): no statistically significant drug effect
EEG rapid activity (20-30 Hz anterior leads, 16 to 40 Hz posterior leads) [9, 12]: statistically significant increase of rapid activity
median peak position (MPP) on the frequency axis [9, 12]: from 10 to 15-17 Hz and from 11 to 13-15 Hz
decrease in [35S]GTPγS specific binding ([10]; 10 nM, receptor level 1000-1100 fmol/mg protein): 22%
maximal decrease of specific binding of [35S]GTPγS ([10]; receptor level 410 fmol/mg protein): 25%
difference between the affinity at H3R and at other histamine receptors [11]: three orders of magnitude
potency at the human H3R as compared to the mouse H3R ([11]; same test system): about 6 times
